Patent US9113629B2, “4-amino-6-(4-substituted-phenyl)-picolinates and 6-amino-2-(4-substituted-phenyl)-pyrimidine-4-carboxylates and their use as herbicides” (DOW AGROSCIENCES LLC, priority 2013, dated 2015)
Where two headings read alike, the source gives them in different places.

Experiments:
[1] = test system: Key Broadleaf Weed and Crop Species; test: Post-emergent Test II herbicidal activity (Table 5); format: in vivo; conditions: post-emergence, 336 h, post-emergent, 14 days after application; for pest or weed control at 70 g/ha: 70 g ai/ha; for pest or weed control at 140 g/ha: 140 g ai/ha
Method in brief: (§1)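 Foliar application at 187 L/ha to greenhouse-grown seedlings (first or second true leaf); subirrigation thereafter. Visual 0–100% injury at 14 d relative to untreated plants.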

[2] = test system: Key Grass and Sedge Weeds as well as Grass Crops; test: Post-emergent Test II herbicidal activity (Table 6); format: in vivo; conditions: post-emergence, 336 h; for pest or weed control at 70 g/ha: application rate 70 g ai/ha; for pest or weed control at 140 g/ha: application rate 140 g ai/ha
Method in brief: as §1

[3] = ABUTH: velvetleaf (Abutilon theophrasti), read-out: Visual Growth Reduction (%) 14 Days After Application ABUTH
[4] = AMARE: redroot pigweed (Amaranthus retroflexus), read-out: Visual Growth Reduction (%) 14 Days After Application AMARE
[5] = BRSNN: oilseed-rape, canola (Brassica napus), read-out: Visual Growth Reduction (%) 14 Days After Application BRSNN
[6] = CHEAL: lambsquarters (Chenopodium album), read-out: Visual Growth Reduction (%) 14 Days After Application CHEAL
[7] = EPHHL: wild poinsettia (Euphorbia heterophylla), read-out: Visual Growth Reduction (%) 14 Days After Application EPHHL
[8] = HELAN: sunflower (Helianthus annuus), read-out: Visual Growth Reduction (%) 14 Days After Application HELAN
[9] = VIOTR: wild pansy (Viola tricolor), read-out: Visual Growth Reduction (%) 14 Days After Application VIOTR
[10] = Triticum aestivum, TRZSS (wheat), read-out: Visual Growth Reduction (%) 14 Days After Application, TRZSS
[11] = CYPES: yellow nutsedge (Cyperus esculentus), read-out: Visual Growth Reduction (%) 14 Days After Application, CYPES
[12] = DIGSA: crabgrass (Digitaria sanguinalis), read-out: Visual Growth Reduction (%) 14 Days After Application, DIGSA
[13] = ECHCG: barnyardgrass (Echinochloa crus-galli), read-out: Visual Growth Reduction (%) 14 Days After Application, ECHCG
[14] = ORYSA: rice (Oryza sativa), read-out: Visual Growth Reduction (%) 14 Days After Application, ORYSA
[15] = SETFA: giant foxtail (Setaria faberi), read-out: Visual Growth Reduction (%) 14 Days After Application, SETFA
[16] = SORVU: grain sorghum (Sorghum vulgare), read-out: Visual Growth Reduction (%) 14 Days After Application, SORVU
[17] = ZEAMX: maize, corn (Zea mays), read-out: Visual Growth Reduction (%) 14 Days After Application, ZEAMX

SMILES	pest or weed control at 70 g/ha [1, 3] [%]	pest or weed control at 140 g/ha [1, 3] [%]	pest or weed control at 70 g/ha [1, 4] [%]	pest or weed control at 140 g/ha [1, 4] [%]	pest or weed control at 70 g/ha [1, 5] [%]	pest or weed control at 140 g/ha [1, 5] [%]	pest or weed control at 70 g/ha [1, 6] [%]	pest or weed control at 140 g/ha [1, 6] [%]	pest or weed control at 70 g/ha [1, 7] [%]	pest or weed control at 140 g/ha [1, 7] [%]	pest or weed control at 70 g/ha [1, 8] [%]	pest or weed control at 140 g/ha [1, 8] [%]	pest or weed control at 70 g/ha [1, 9] [%]	pest or weed control at 140 g/ha [1, 9] [%]	pest or weed control at 70 g/ha [2, 10] [%]	pest or weed control at 140 g/ha [2, 10] [%]	pest or weed control at 70 g/ha [2, 11] [%]	pest or weed control at 140 g/ha [2, 11] [%]	pest or weed control at 70 g/ha [2, 12] [%]	pest or weed control at 140 g/ha [2, 12] [%]	other results
Nc1c(F)c(-c2cc(F)c(Br)cc2F)nc(C(=O)O)c1Cl [Compound 42, 4-amino-6-(4-bromo-2,5-difluorophenyl)-3-chloro-5-fluoropicolinic acid]	85 to 94	95 to 100	95 to 100	95 to 100	95 to 100	95 to 100	95 to 100	95 to 100	95 to 100	95 to 100	95 to 100	95 to 100	95 to 100	95 to 100	60 to 74	75 to 84	95 to 100	95 to 100	75 to 84	85 to 94	pest or weed control at 70 g/ha [2, 13]: 95 to 100%; pest or weed control at 140 g/ha [2, 13]: 95 to 100%; pest or weed control at 70 g/ha [2, 14]: 30 to 44%; pest or weed control at 140 g/ha [2, 14]: 30 to 44%; pest or weed control at 70 g/ha [2, 15]: 95 to 100%; pest or weed control at 140 g/ha [2, 15]: 95 to 100%; pest or weed control at 70 g/ha [2, 16]: 95 to 100%; pest or weed control at 140 g/ha [2, 16]: 95 to 100%; pest or weed control at 70 g/ha [2, 17]: 75 to 84%; pest or weed control at 140 g/ha [2, 17]: 60 to 74%
Nc1c(Cl)c(C(=O)O)nc(-c2ccc(Br)c(F)c2)c1Cl [Compound 43, 4-Amino-6-(4-bromo-3-fluorophenyl)-3,5-dichloropicolinic acid]	85 to 94	85 to 94	95 to 100	95 to 100	95 to 100	95 to 100	75 to 84	75 to 84	60 to 74	60 to 74	95 to 100	95 to 100	95 to 100	95 to 100	60 to 74	60 to 74	95 to 100	95 to 100	75 to 84	75 to 84	pest or weed control at 70 g/ha [2, 13]: 75 to 84%; pest or weed control at 140 g/ha [2, 13]: 60 to 74%; pest or weed control at 70 g/ha [2, 14]: 0 to 29%; pest or weed control at 140 g/ha [2, 14]: 30 to 44%; pest or weed control at 70 g/ha [2, 15]: 60 to 74%; pest or weed control at 140 g/ha [2, 15]: 60 to 74%; pest or weed control at 70 g/ha [2, 16]: 95 to 100%; pest or weed control at 140 g/ha [2, 16]: 95 to 100%; pest or weed control at 70 g/ha [2, 17]: 75 to 84%; pest or weed control at 140 g/ha [2, 17]: 75 to 84%
